# Measured values: patent US20090099150A1, “Methotrexate Combinations For Treating Inflammatory Diseases” (priority 2005, published 2009)
# Columns and labels:
# [1] = tested on: type II collagen induced arthritis; conditions: Salvemini et al., Arthritis & Rheumatism 44:2909-2921, 2001; cited from earlier work
# [2] = tested on: collagen-induced arthritis; test: Hind paw volume by plethysmometry in collagen-induced arthritis; type: in vivo, Lewis rats; conditions: CIA rats, alone
# [3] = tested on: collagen-induced arthritis; test: Clinical assessment of collagen-induced arthritis (percent arthritic rats, arthritis index); type: in vivo, Lewis rats; conditions: CIA rats
# [4] = Body weight gain in collagen-induced arthritis; type: in vivo, Lewis rats; conditions: CIA rats
# Protocol: (§1) Animals were randomly divided into sixth groups (n=10 for each group); (1) Sham group receiving intraperitoneally 26 mM sodium bicarbonate buffer at pH 8.1-8.3 which constituted the vehicle for M40403; (2) CIA group which constituted rats subjected to collagen induced arthritis as described below; (3) CIA+M40403 (2 mg/kg) group in which rats subjected to collagen-induced arthritis received M40403 at 2 mg/kg i.p. every 24 h, starting from day 25; (4) CIA+MET (0.015 mg/kg) group in which rats subjected to collagen-induced arthritis received orally, methotrexate at 0.015 mg/kg starting from day 25; (5) CIA+MET (0.15 mg/kg) group in which rats subjected to collagen-induced arthritis received orally, methotrexate at 0.15 mg/kg starting from day 25; (6)
# (§2) CIA+MET+M40403 group in which rats subjected to collagen-induced arthritis received methotrexate (0.015 mg/kg; orally) and with M4043 (2 mg/kg, i.p.) starting from day 25.
# (§3) Collagen-induced arthritis was produced as follows. Bovine type II collagen was dissolved in 0.01 M acetic acid at a concentration of 2 mg/ml by stirring overnight at 4° C. Dissolved collagen was frozen at −70° C. until use. Complete Freund's adjuvant was prepared by the addition of Mycobacterium tuberculosis H37Ra at a concentration of 2 mg/ml. Before injection, the collagen was emulsified with an equal volume of complete Freund's adjuvant. Collagen-induced arthritis was elicited as previously described (Salvemini et al Arthritis & rheumatism 44:2909-2921, 2001). On day 1, Lewis rats were injected intradermally at the base of the tail with 100 μl of the emulsion (containing 100 μg of bovine type II collagen). On day 21, a second injection of type II collagen in complete Freund's adjuvant was administered.
# [5] = tested on: inflammation; conditions: Salvemini et al., Science 286:304-306, 1999; cited from earlier work
# [6] = tested on: collagen-induced arthritis; test: Radiography of hind paws at day 35; type: in vivo, Lewis rats; conditions: CIA rats; for protection from bone resorption / joint pathology (FIG. 4: histological damage score and radiograph score): alone; for radiographic bone resorption / joint pathology of hind paws: methotrexate 0.15 mg/kg orally
# [7] = tested on: TNF-α; test: Plasma TNF-α level (ELISA) at 35 days in collagen-induced arthritis; type: in vivo, Lewis rats; conditions: CIA rats, day 35
# Protocol: as §1, §2, §3
# (§4) TNF-α and IL-1β levels were evaluated in plasma at 35 days after the induction of arthritis. The assay was carried out by using a calorimetric, commercial kit (Calbaiochem-Novabiochem Corporation, USA). The ELISA has a lower detection limit of 5 pg/ml.
# [8] = tested on: IL-1β; test: Plasma IL-1β level (ELISA) at 35 days in collagen-induced arthritis; type: in vivo, Lewis rats; conditions: CIA rats, day 35
# Protocol: as §1, §2, §3, §4
# [9] = tested on: collagen-induced arthritis; test: Histological assessment of joint injury at day 35; type: in vivo, Lewis rats; conditions: CIA rats, methotrexate 0.15 mg/kg orally
# [10] = methotrexate 0.015 mg/kg orally
# [11] = methotrexate 0.015 mg/kg orally, alone
smiles,measurement,setting,value
[Cl-].[Cl-].[Mn+2].c1cc2nc(c1)CN[C@@H]1CCCC[C@H]1NCCN[C@@H]1CCCC[C@H]1NC2 [M40403],efficacy in an animal model of rheumatoid arthritis,[1],effective
same,hind paw volume (paw edema),[2]; M40403 2 mg/kg i.p.,attenuated the paw edema from day 30 to 35
same,development of collagen-induced arthritis (percent of arthritic rats),"[3]; M40403 2 mg/kg i.p. every 24 h from day 25, alone",did not significantly altered the development of collagen-induced arthritis
same,arthritis index,"[3]; M40403 2 mg/kg i.p., alone",Neither M40403 (2 mg/kg) nor methotrexate. (0.015 mg/kg) treatment alone attenuated the arthritis index
same,body weight gain,"[4]; M40403 2 mg/kg i.p., alone",significantly attenuated the loss in body weight
same,efficacy in animal models of inflammation,[5],effective
same,protection from bone resorption / joint pathology (FIG. 4: histological damage score and radiograph score),[6]; M40403 2 mg/kg i.p.,No significant protection
same,plasma level of TNF-α,"[7]; M40403 2 mg/kg i.p., alone",No significant effect
same,plasma level of IL-1β,"[8]; M40403 2 mg/kg i.p., alone",No significant effect
"CN(Cc1cnc2nc(N)nc(N)c2n1)c1ccc(C(=O)N[C@@H](CCC(=O)O)C(=O)O)cc1 [methotrexate, N-[4-[[(2,4-Diamino-6-pteridinyl)methyl]methylamino]benzoyl]-L-glutamic acid]",hind paw volume (paw edema),[2]; [10],attenuated the paw edema from day 30 to 35
same,hind paw volume (hind paw swelling),[2]; methotrexate 0.15 mg/kg orally,continuously significant (P<0.001) suppression of hind paw swelling from day 26 to 35
same,Emax at 0.15 mg/kg,"[2]; Rattus norvegicus, po, 672 h, methotrexate 0.15 mg/kg orally, from day 28 to 35, read-out: maximal response, suppression of hind paw swelling",70%
same,development of collagen-induced arthritis (percent of arthritic rats),"[3]; methotrexate 0.015 mg/kg orally from day 25, alone",did not significantly altered the development of collagen-induced arthritis
same,arthritis index,[3]; [11],Neither M40403 (2 mg/kg) nor methotrexate. (0.015 mg/kg) treatment alone attenuated the arthritis index
same,development of collagen-induced arthritis (percent of arthritic rats),"[3]; methotrexate 0.15 mg/kg orally from day 25, alone",significant reduction in the percent of arthritic rats
same,arthritis index,"[3]; methotrexate 0.15 mg/kg orally, between days 26 and 35 after immunization",significant suppression (P<0.01)
same,body weight gain,[4]; [11],significantly attenuated the loss in body weight
same,body weight gain,[4]; methotrexate 0.15 mg/kg orally,positively affected the weight gain
same,protection from bone resorption / joint pathology (FIG. 4: histological damage score and radiograph score),[6]; [10],No significant protection
same,radiographic bone resorption / joint pathology of hind paws,[6],suppression of joint pathology
same,radiographic bone resorption / joint pathology of hind paws,[6]; listed as Methogtrexate,markedly protect from bone resorption
same,plasma level of TNF-α,[7]; [11],No significant effect
same,plasma level of TNF-α,[7]; methotrexate 0.15 mg/kg orally,significantly lower
same,plasma level of IL-1β,[8]; [11],No significant effect
same,plasma level of IL-1β,[8]; methotrexate 0.15 mg/kg orally,significantly lower
same,histology of the paw: bone erosion and degree of arthritis (damage score),[9],the bone erosion as well as the degree of arthritis were significantly reduced
